Data reported in PubChem BioAssay (NCI).
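Cells were grown in 96-well plates and exposed to each compound for 48 hours at five concentrations; endpoints were interpolated linearly between bracketing concentrations, or set to the highest concentration if not reached. TGI denotes the concentration required for complete inhibition of growth.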

Tests used:
Test in all cases: DTP human tumour cell line panel, 48 h
A549 NSCLC = system: A549 NSCLC
EKVX NSCLC = system: EKVX NSCLC
HOP-92 NSCLC = system: HOP-92 NSCLC
K-562 leukemia = system: K-562 leukemia
KM12 colon = system: KM12 colon
NCI-H226 lung = system: NCI-H226 lung
OVCAR-4 ovarian = system: OVCAR-4 ovarian
SK-MEL-28 melanoma = system: SK-MEL-28 melanoma
SK-MEL-5 melanoma = system: SK-MEL-5 melanoma
SW-620 colon = system: SW-620 colon

SMILES | TGI (A549 NSCLC) | TGI (EKVX NSCLC) | TGI (HOP-92 NSCLC) | TGI (K-562 leukemia) | TGI (KM12 colon) | TGI (NCI-H226 lung) | TGI (OVCAR-4 ovarian) | TGI (SK-MEL-28 melanoma) | TGI (SK-MEL-5 melanoma) | TGI (SW-620 colon)
COc1ccc(C(C2=C(O)COC2=O)c2cc3c(cc2O)OCO3)cc1OC (stereo not given) | > 100 µM | > 100 µM | > 100 µM | > 100 µM | > 100 µM | > 100 µM | > 100 µM | > 100 µM | > 100 µM | > 100 µM
CCc1nc2ccc(NCCN(C)C)c3c(=O)c4ccccc4n1c23 | 4.76 µM | 6.78 µM | 5.26 µM | 22 µM | 6.42 µM | 4.34 µM | 4.35 µM | 9.43 µM | 2.32 µM | 4.99 µM
C[N+]1(CCN[N+]2(C)CCCCC2)CCc2ccccc2C1 (stereo not given) | > 100 µM | > 100 µM | > 100 µM | > 100 µM | > 100 µM | > 100 µM | > 100 µM | > 100 µM | > 100 µM | > 100 µM
S=C(Nc1ccc2cn[nH]c2c1)Nc1ccc2cn[nH]c2c1 | > 100 µM | > 100 µM | > 100 µM | > 100 µM | > 100 µM | > 100 µM | > 100 µM | > 100 µM | > 100 µM | > 100 µM
C[Si](C)(C)C1=C([Si](C)(C)C)C(Cl)(Cl)C1=O | 49.7 µM | 16.2 µM | 5.55 µM | 2.88 µM | 18.9 µM | 8.86 µM | 12.5 µM | 9.29 µM | 5.89 µM | 13.2 µM
O=C(CCc1ccccc1)On1c(-c2ccccc2)nc2ccccc2c1=S | > 100 µM | 52.1 µM | > 100 µM | > 100 µM | 24 µM | 29.9 µM | > 100 µM | > 100 µM | 47.2 µM | > 100 µM
CC(=O)NC(CC(C)C)C(=O)NC(Cc1ccccc1)C(=S)N1CCCC1 (stereo not given) | > 100 µM | > 100 µM | > 100 µM | > 100 µM | > 100 µM | > 100 µM | > 100 µM | > 100 µM | > 100 µM | > 100 µM
O=C1Nc2ccccc2Nc2ccncc21 | > 100 µM | > 100 µM | > 100 µM | > 100 µM | > 100 µM | > 100 µM | > 100 µM | > 100 µM | > 100 µM | > 100 µM
O=[N+]([O-])c1ccc(O)c(/C=N/NC(=S)N2CCCCC2)c1 | > 100 µM | 15.3 µM | 33 µM | > 100 µM | 40 µM | 5.94 µM | 50.7 µM | > 100 µM | 21 µM | > 59 µM
COc1ccc(/C=C/C2=NN(c3cccc(S(=O)(=O)O)c3)C3(C2)SCC(=O)N3c2nc3ccccc3s2)cc1 (stereo not given) | > 100 µM | > 100 µM | > 100 µM | > 100 µM | > 100 µM | > 100 µM | > 100 µM | > 100 µM | > 100 µM | > 100 µM
O=c1[nH]cnc2c1nnn2CCCCCCCCCCCCn1nnc2c(=O)[nH]cnc21 | > 100 µM | > 82.5 µM | 53 µM | > 100 µM | > 100 µM | 63.5 µM | > 100 µM | > 100 µM | > 100 µM | > 100 µM
COc1ccccc1C[C@@H]1OC2(C=CC(=O)C=C2)O[C@H]1Cc1ccccc1OC | > 50 µM | 13 µM | 20.1 µM | > 50 µM | 18.8 µM | 16.8 µM | 19.9 µM | 16.1 µM | 16.1 µM | 5.98 µM
COc1cc(C2c3cc4c(cc3OC(N3CCNCC3)C2C)OCO4)cc(OC)c1OC (stereo not given) | > 53.9 µM | > 100 µM | 24.8 µM | 10.9 µM | 9.87 µM | 8.78 µM | 21.6 µM | 38.6 µM | 4.03 µM | 17.3 µM
COc1cc(N(Cc2ccc3oc(=O)c(-c4ccccc4)nc3c2)Cc2ccc3oc(=O)c(-c4ccccc4)nc3c2)cc(OC)c1OC | > 10 µM | > 10 µM | > 10 µM | > 10 µM | > 10 µM | > 10 µM | > 10 µM | > 10 µM | > 10 µM | > 10 µM
COc1cc(-c2ccccc2N)c2cccnc2c1OC | 16.1 µM | 13.8 µM | 22.3 µM | 20.5 µM | 24.3 µM | 26.6 µM | 19.6 µM | 32.8 µM | 26.3 µM | 17.4 µM
CCc1ccccc1NNc1cc(=O)[nH]c(=O)[nH]1 | 57.3 µM | 33.9 µM | 31.3 µM | > 100 µM | 36 µM | 35 µM | 38 µM | 38 µM | 32.4 µM | 37.3 µM
CC(=O)N1CCn2c1nc1cc(Cl)ccc12 | > 100 µM | > 100 µM | 81.4 µM | > 100 µM | > 100 µM | > 100 µM | > 100 µM | > 100 µM | > 100 µM | > 100 µM
CC1(C)CC(=O)C2=C(C1)OC1=C(CC(C)(C)CC1=O)C2c1ccccc1[N+](=O)[O-] (stereo not given) | > 100 µM | > 100 µM | > 100 µM | > 100 µM | > 100 µM | > 100 µM | > 100 µM | > 100 µM | > 100 µM | > 100 µM
C[Si](C)(c1ccccc1)[C@H]1CCCC=C1CCNC1c2ccccc2CCc2ccccc21 | > 100 µM | > 100 µM | > 100 µM | > 100 µM | > 100 µM | > 100 µM | > 100 µM | > 100 µM | > 100 µM | > 100 µM
COc1cccc(/C=N/[N-]C(N)=O)c1[O-].[Cu+2].[OH3+].c1ccc(-c2ccccn2)nc1 | > 100 µM | > 78.2 µM | 29.8 µM | 66 µM | > 100 µM | 88.1 µM | 33.1 µM | 41.2 µM | 31.6 µM | > 100 µM
CC(C)(C)N(Cc1ccc2c(c1)OCO2)C(=O)/C=C\Sc1ccccc1 | > 100 µM | > 100 µM | 91 µM | > 100 µM | > 100 µM | > 100 µM | > 100 µM | > 100 µM | > 100 µM | > 100 µM
COc1cc2nc(-c3cccs3)[nH]c(=O)c2cc1OC | > 100 µM | > 100 µM | > 100 µM | > 100 µM | > 100 µM | > 100 µM | > 100 µM | > 100 µM | > 100 µM | > 100 µM
CCN(CC)c1ccc(/C=C/C=C2C(=O)NC(=S)NC2=O)cc1 | > 100 µM | > 100 µM | > 100 µM | > 75.1 µM | > 100 µM | 99 µM | > 100 µM | > 100 µM | > 100 µM | > 100 µM
C/C1=C\C=C(\C(C)C)CC/C(C(=O)O)=C\CC/C(C)=C/CC1 | > 100 µM | 78.7 µM | 40.5 µM | 74.8 µM | 41.8 µM | 43.3 µM | > 100 µM | 56.3 µM | 34.7 µM | > 100 µM
CC1CC(=O)N(N(C)C)C(C#N)(C#N)C1(C#N)C#N (stereo not given) | > 74.2 µM | 57.5 µM | 26 µM | > 66.3 µM | > 64.9 µM | 67 µM | 33.4 µM | 34.3 µM | 47 µM | 21.1 µM
CC(=N\N)/C(C)=N/N=C(C)/C(C)=N/N=C(C)/C(C)=N/N | > 100 µM | > 100 µM | > 100 µM | > 100 µM | > 100 µM | > 100 µM | > 100 µM | > 100 µM | > 100 µM | > 100 µM
CN(C)c1cccc(NC2=NCCO2)c1 | > 100 µM | > 100 µM | > 100 µM | > 100 µM | 78.6 µM | > 100 µM | > 100 µM | > 100 µM | > 100 µM | > 100 µM
O=C1C(CN2CCOCC2)CCCC1CN1CCOCC1 (stereo not given) | 55.4 µM | 10.7 µM | 1.97 µM | 6.84 µM | 17.8 µM | 40.3 µM | 5.44 µM | 3.83 µM | 23.9 µM | 0.911 µM
Nc1c(Cl)ncnc1NCCCNc1ncnc(Cl)c1N | > 100 µM | > 100 µM | > 100 µM | > 100 µM | > 100 µM | > 100 µM | > 100 µM | > 100 µM | > 100 µM | > 100 µM
Cc1ccc2c(c1)C(=O)C(C1OC(=O)c3ccccc31)C2 (stereo not given) | > 100 µM | > 100 µM | > 100 µM | > 100 µM | > 100 µM | > 100 µM | > 100 µM | > 100 µM | > 100 µM | > 100 µM
